# Columns and labels:
# MCF7 [1] = assay: Cytotoxicity against MCF-7 cells in presence of 1 uM E2 (estradiol); type: functional, Homo sapiens
# MCF7 [2] = assay: Cytotoxicity against MCF-7 cells in the absence of 1 uM E2 (estradiol); type: functional, Homo sapiens
# MCF7 [3] = assay: Cytostaticity against MCF-7 cells in the presence of 1 uMolar E2 (estradiol); type: functional, cell-based; settings: Homo sapiens
# Estrogen receptor = Estrogen receptor (Homo sapiens, UniProt Q92731+P03372); settings: mvln
# [4] = target: Estrogen receptor (Ovis aries) (UniProt P49885+Q9TU15); assay: Relative binding affinity for estrogen receptor in lamb uterus cytosol relative to estradiol; type: protein assay
Compound,Cytotoxicity (MCF7 [1]) [µM],Cytotoxicity (MCF7 [2]) [µM],IC50 (MCF7 [3]) [nM],IC50 (Estrogen receptor) [nM],relative binding affinity (RBA) [4]
CCN(CC)CCOc1ccc(/C(=C/Cc2ccccc2)c2ccc(O)cc2)cc1,3,2.9,1700,1700,
CCN(CC)CCOc1ccc(/C(=C/C(C)C)c2ccc(O)cc2)cc1,8.8,8.4,1700,1700,
CCCCC/C=C(\c1ccc(O)cc1)c1ccc(OCCN2CCCC2)cc1,2.9,2.9,1600,3300,
CCCC/C=C(/c1ccc(O)cc1)c1ccc(OCCN(CC)CC)cc1,5.2,4.4,1700,500,
CCCCCC/C=C(\c1ccc(O)cc1)c1ccc(OCCN(CC)CC)cc1,3.8,2.8,1200,2500,
CCCCC/C=C(/c1ccc(O)cc1)c1ccc(OCCN(C)C)cc1,9.3,8.5,2400,1500,
CCCCCCCCCCCCCC/C=C(/c1ccc(O)cc1)c1ccc(OCCN(CC)CC)cc1,30,30,7900,8000,
CCCCCC=C(c1ccc(OCCN(CC)CC)cc1)c1ccc(OCCN(CC)CC)cc1,1.3,2.7,700,6000,
CCCCCCCCCCCCCC/C=C(\c1ccc(O)cc1)c1ccc(OCCN(CC)CC)cc1,30,30,8000,9500,
CCCCCCCC/C=C(/c1ccc(O)cc1)c1ccc(OCCN(CC)CC)cc1,2.9,5.1,1700,3500,
CCCCCCCC/C=C(\c1ccc(O)cc1)c1ccc(OCCN(CC)CC)cc1,3,3.6,1600,4700,
CCCCC/C=C(/c1ccc(O)cc1)c1ccc(OCCN(CC)CC)cc1,3.2,2.9,1600,900,
CCCCC/C=C(\c1ccc(O)cc1)c1ccc(OCCN(CC)CC)cc1,3.2,2.7,1100,3200,0.1
CCCCCC/C=C(/c1ccc(O)cc1)c1ccc(OCCN(CC)CC)cc1,3,2.9,1600,1900,
CCN(CC)CCOc1ccc(/C(=C\C(C)C)c2ccc(O)cc2)cc1,9.4,9.2,2400,500,
CCCC/C(CC)=C(/c1ccc(O)cc1)c1ccc(OCCN(CC)CC)cc1.CCCC/C(CC)=C(\c1ccc(O)cc1)c1ccc(OCCN(CC)CC)cc1,2.8,2.8,1000,150,
CCN(CC)CCOc1ccc(/C(=C\Cc2ccccc2)c2ccc(O)cc2)cc1,4.3,3.2,1800,1300,
CC(C)N(CCOc1ccc(C(=C2CCCCC2)c2ccc(OCCN(C(C)C)C(C)C)cc2)cc1)C(C)C,8,30,4200,2100,
CC(C)C=C(c1ccc(OCCN(C(C)C)C(C)C)cc1)c1ccc(OCCN(C(C)C)C(C)C)cc1,4.5,3.6,1600,3100,
CC/C(=C(\c1ccccc1)c1ccc(OCCN(C)C)cc1)c1ccccc1 [TAMOXIFEN],13,9.8,8000,,
CC/C(=C(\c1ccc(O)cc1)c1ccc(OCCN(C)C)cc1)c1ccccc1,9.4,6,8000,,
CCCCC/C=C(\c1ccc(O)cc1)c1ccc(OCCN(C)C)cc1,3,2.9,1700,1800,
CC(C)N(CCOc1ccc(C(=C2CCCCC2)c2ccc(O)cc2)cc1)C(C)C,5,3.8,1800,200,
CCCC/C=C(\c1ccc(O)cc1)c1ccc(OCCN(CC)CC)cc1,3,2.9,1600,1500,

# Source: ChEMBL document CHEMBL1129985, “Cytotoxicity and antiestrogenicity of a novel series of basic diphenylethylenes” (J Med Chem, 1997)
